From patent US8859559B2, “Substituted pyrazines and their use in the treatment of disease” (Boehringer Ingelheim International GmbH, priority 2011, dated 2014)
pIC50: −log10 of the molar value.

target: T1, ENaC (Epithelial Sodium Channel) (Mus musculus, UniProt Q61180+Q9WU38+Q9WU39); experiment: Ussing chamber: inhibition of amiloride sensitive short circuit current (I_sc) in M-1 cells; assay type: cell-based; settings: mouse kidney M-1 cells
T1 construct: Mouse kidney M-1 cells were cultivated in DMEM; endogenous in cells; host or cells: Mouse kidney M-1 cells (dexamethasone-treated, on transwell filters)
T1 sequence (Q61180 1-699): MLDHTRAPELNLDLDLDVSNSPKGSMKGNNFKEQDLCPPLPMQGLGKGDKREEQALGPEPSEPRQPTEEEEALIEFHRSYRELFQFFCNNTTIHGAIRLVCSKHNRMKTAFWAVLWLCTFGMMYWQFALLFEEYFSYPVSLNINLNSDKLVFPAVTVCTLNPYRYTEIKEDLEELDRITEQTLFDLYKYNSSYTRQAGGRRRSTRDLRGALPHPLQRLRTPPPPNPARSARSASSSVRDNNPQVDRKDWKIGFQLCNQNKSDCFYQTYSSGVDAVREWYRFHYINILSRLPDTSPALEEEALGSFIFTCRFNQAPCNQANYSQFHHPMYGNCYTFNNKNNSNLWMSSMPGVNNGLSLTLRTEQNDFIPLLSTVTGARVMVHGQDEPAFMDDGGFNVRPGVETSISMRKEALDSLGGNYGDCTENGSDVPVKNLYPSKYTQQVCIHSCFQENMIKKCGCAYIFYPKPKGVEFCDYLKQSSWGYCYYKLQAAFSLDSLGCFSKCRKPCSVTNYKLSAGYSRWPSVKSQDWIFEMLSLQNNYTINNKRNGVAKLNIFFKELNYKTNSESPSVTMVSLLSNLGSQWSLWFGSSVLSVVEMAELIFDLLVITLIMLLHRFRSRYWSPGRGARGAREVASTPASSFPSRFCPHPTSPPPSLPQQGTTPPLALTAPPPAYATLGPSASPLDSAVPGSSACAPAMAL
T1 sequence (Q9WU38 1-638): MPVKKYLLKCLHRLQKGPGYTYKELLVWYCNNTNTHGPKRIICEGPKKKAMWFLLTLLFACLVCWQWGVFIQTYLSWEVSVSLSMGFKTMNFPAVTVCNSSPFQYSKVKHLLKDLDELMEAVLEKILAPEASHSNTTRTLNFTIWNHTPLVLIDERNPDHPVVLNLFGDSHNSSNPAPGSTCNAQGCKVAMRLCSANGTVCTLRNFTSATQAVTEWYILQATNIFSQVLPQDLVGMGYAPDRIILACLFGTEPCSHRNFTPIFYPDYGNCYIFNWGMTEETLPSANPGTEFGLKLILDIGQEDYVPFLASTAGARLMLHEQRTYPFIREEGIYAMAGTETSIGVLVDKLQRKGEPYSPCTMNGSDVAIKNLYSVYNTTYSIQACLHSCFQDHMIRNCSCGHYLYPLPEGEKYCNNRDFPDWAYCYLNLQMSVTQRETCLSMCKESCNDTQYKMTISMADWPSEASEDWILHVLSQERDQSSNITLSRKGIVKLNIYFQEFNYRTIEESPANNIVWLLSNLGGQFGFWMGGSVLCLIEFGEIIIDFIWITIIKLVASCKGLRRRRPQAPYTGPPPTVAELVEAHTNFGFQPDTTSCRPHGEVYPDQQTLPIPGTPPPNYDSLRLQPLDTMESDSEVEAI
T1 sequence (Q9WU39 1-655): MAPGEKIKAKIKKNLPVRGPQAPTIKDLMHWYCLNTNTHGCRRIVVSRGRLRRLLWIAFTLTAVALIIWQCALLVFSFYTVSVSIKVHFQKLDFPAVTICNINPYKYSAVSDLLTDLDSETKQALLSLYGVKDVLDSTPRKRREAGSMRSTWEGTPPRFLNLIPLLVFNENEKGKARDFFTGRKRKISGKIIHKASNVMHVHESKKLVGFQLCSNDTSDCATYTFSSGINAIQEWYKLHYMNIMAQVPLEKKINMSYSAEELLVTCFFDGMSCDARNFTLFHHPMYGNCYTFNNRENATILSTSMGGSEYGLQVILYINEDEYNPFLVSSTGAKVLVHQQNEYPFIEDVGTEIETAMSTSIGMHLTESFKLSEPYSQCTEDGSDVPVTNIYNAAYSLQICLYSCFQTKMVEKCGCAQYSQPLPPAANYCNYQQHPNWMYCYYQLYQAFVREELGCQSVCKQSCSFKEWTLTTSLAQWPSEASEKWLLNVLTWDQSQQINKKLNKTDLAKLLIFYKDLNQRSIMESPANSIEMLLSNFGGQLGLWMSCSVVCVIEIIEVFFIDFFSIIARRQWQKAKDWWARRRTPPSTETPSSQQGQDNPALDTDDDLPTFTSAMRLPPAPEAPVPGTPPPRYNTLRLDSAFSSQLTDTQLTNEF
Procedure: Mouse kidney M-1 cells were cultivated in DMEM containing 5% FCS and 5 μM dexamethasone for 10 to 12 days on polyester transwell filters. Filters were inserted into a teflon-coated well-plate which fit into the in-house ussing chamber system. Prior to measurement the medium of M-1 cells was replaced with Caco-2 transport buffer (Invitrogen, Germany). During measurements, the Ussing chamber temperature was kept at 37° C. Short circuit currents (I_sc) were measured in the voltage-clamp mode using an in-house built amplifier (Boehringer Ingelheim, Biberach) with the software package Lab View for data acquisition and analysis. The transepithelial electrical resistance (TEER) was determined by the application of voltage steps of ±5 mV every 5 sec. Compounds were administered at a final concentration of 3 μM or at increasing concentrations (1-3-10 μM) to the apical solution. At the end of each experiment the amiloride sensitive I_SC was measured by adding 3 μM amiloride to the apical compartment. Results are expressed as inhibition in percent of the amiloride effect or as IC50. With the example compounds given above, the following IC50 values were determined in the Ussing Chamber assay: […]

| pIC50 | Compound |
| --- | --- |
| 8.40 | NC(=NC(=O)c1nc(Cl)c(N)nc1N)NC1CCN(Cc2cccc(-c3cn(CCOCCOCCOCCO)nn3)c2)CC1 [Example 3.36] |
| 8.40 | COC(=O)c1ccc(CN2CCC(N/C(N)=N/C(=O)c3nc(Cl)c(N)nc3N)CC2)c(Cl)c1 [Example 1.12] |
| 8.15 | N/C(=N\C(=O)c1nc(Cl)c(N)nc1N)NC1CCN(Cc2ccc(B(O)O)cc2)CC1 [Example 1.15] |
| 8.15 | CC(=O)Oc1ccc(CN2CCC(N/C(N)=N/C(=O)c3nc(Cl)c(N)nc3N)CC2)cc1 [Example 1.41] |
| 7.18 | COC(=O)c1ccc(CN2CCC(C)(NC(N)=NC(=O)c3nc(Cl)c(N)nc3N)CC2)cc1 [Example 1.17] |
| 7.89 | NC(=NC(=O)c1nc(Cl)c(N)nc1N)NC1CCN(Cc2ccc(OCc3cn(CCOCCOCCOCCOCCOCCOC(c4ccccc4)(c4ccccc4)c4ccccc4)nn3)cc2)CC1 [Example 3.23] |
| 8.15 | N/C(=N\C(=O)c1nc(Cl)c(N)nc1N)NC1CCN(Cc2ccc(O)cc2)CC1 [Example 1.31] |
| 8.70 | NC(=NC(=O)c1nc(Cl)c(N)nc1N)NC1CCN(Cc2ccc(C(=O)NCCc3cn(CCCO)cn3)cc2)CC1 [Example 1.52] |
| 8.22 | N/C(=N\C(=O)c1nc(Cl)c(N)nc1N)NC1CCN(Cc2ccccc2)CC1 [Example 1.25] |
| 7.64 | NC(=NC(=O)c1nc(Cl)c(N)nc1N)NC1CCN(Cc2ccc(C(=O)NCCOCCOCCOCCn3cc(CN4CCNCC4)nn3)cc2)CC1 [Example 3.10] |
| 7.77 | CCOC(=O)c1ccc(=O)n(-c2ccc(CN3CCC(NC(N)=NC(=O)c4nc(Cl)c(N)nc4N)CC3)cc2)c1 [Example 1.16] |
| 6.78 | NC(=NC(=O)c1nc(Cl)c(N)nc1N)N[C@H]1CCCN(Cc2ccc(C(=O)O)cc2)C1 [Example 1.60] |
| 8.40 | N/C(=N\C(=O)c1nc(Cl)c(N)nc1N)NC1CCN(Cc2ccc(C(=O)NCCOCCO)cc2)CC1 [Example 1.54] |
| 9.00 | CN(Cc1cn(CCc2ccc(CN3CCC(NC(N)=NC(=O)c4nc(Cl)c(N)nc4N)CC3)cc2)nn1)C(=O)CCNCCOCCOCCOCCOC(c1ccccc1)(c1ccccc1)c1ccccc1 [Example 3.6] |
| 8.15 | NCc1ccc(CN2CCC(N/C(N)=N/C(=O)c3nc(Cl)c(N)nc3N)CC2)cc1 [Example 9.1] |
| 7.70 | NC(=NC(=O)c1nc(Cl)c(N)nc1N)NC1CCN(Cc2ccccc2)C1 (centres unmarked) [Example 1.26] |
| 7.62 | [N-]=[N+]=NCCOCCOCCOCCN(CCOCCOCCO)C(=O)c1ccc(=O)n(Cc2ccc(CN3CCC(NC(N)=NC(=O)c4nc(Cl)c(N)nc4N)CC3)cc2)c1 [Example 1.56] |
| 7.07 | N/C(=N\C(=O)c1nc(Cl)c(N)nc1N)NC1CCN(Cc2ccc(OCC(=O)O)cc2)CC1 [Example 8.8] |
| 8.22 | NC(=NC(=O)c1nc(Cl)c(N)nc1N)NC1CCN(Cc2ccc(-n3cc(COCCO)nn3)cc2)CC1 [Example 3.11] |
| 7.21 | NC(=NC(=O)c1nc(Cl)c(N)nc1N)NC1CCN(Cc2cccc(-c3cn(CCOCCOCCOCCNC(=O)c4cc(OCCOCCOCCOCCO)cc(OCCOCCOCCOCCO)c4)nn3)c2)CC1 [Example 5.12] |

| pIC50 | Compound |
| --- | --- |
| 6.96 | NC(=NC(=O)c1nc(Cl)c(N)nc1N)NC1CCN(Cc2ccc(-c3cn(CCOCCOCCOCCNC(=O)c4cc(OCCOCCOCCOCCO)cc(OCCOCCOCCOCCO)c4)nn3)cc2)CC1 [Example 5.5] |
| 7.82 | COC(=O)c1ccccc1CN1CCC(NC(N)=NC(=O)c2nc(Cl)c(N)nc2N)CC1 [Example 1.43] |
| 8.52 | NC(=NC(=O)c1nc(Cl)c(N)nc1N)NC1CCN(Cc2ccc(-c3cn(CCOCCO)nn3)cc2)CC1 [Example 5.6] |
| 8.40 | NC(=NC(=O)c1nc(Cl)c(N)nc1N)NC1CCN(Cc2ccc(-c3cn(CCOCCOCCOCCNCCOCCOCCO)nn3)cc2)CC1 [Example 3.35] |
| 6.64 | CC(C)(C)OC(=O)c1ccc(CN2CCC[C@H](NC(N)=NC(=O)c3nc(Cl)c(N)nc3N)C2)cc1 [Example 1.59] |
| 8.30 | C#Cc1ccc(CN2CCC(NC(N)=NC(=O)c3nc(Cl)c(N)nc3N)CC2)cc1 [Example 1.50] |
| 9.00 | NC(=NC(=O)c1nc(Cl)c(N)nc1N)NC1CCN(Cc2cccc(-c3cn(CCOCCOCCOCCNCCOCCOCCOC(c4ccccc4)(c4ccccc4)c4ccccc4)nn3)c2)CC1 [Example 3.40] |
| 6.87 | N/C(=N\C(=O)c1nc(Cl)c(N)nc1N)NC1CCN(C(C(=O)O)c2ccccc2)CC1 (centres unmarked) [Example 8.1] |
| 7.60 | [N-]=[N+]=NCCOCCOCCOCCn1cc(-c2ccc(CN3CCC(NC(N)=NC(=O)c4nc(Cl)c(N)nc4N)CC3)cc2)nn1 [Example 3.32] |
| 8.22 | NC(=NC(=O)c1nc(Cl)c(N)nc1N)NC1CCN(Cc2ccc(-c3cn(CCOCCOCCOC(c4ccccc4)(c4ccccc4)c4ccccc4)nn3)cc2)CC1 [Example 3.28] |
| 7.28 | NC(=NC(=O)c1nc(Cl)c(N)nc1N)NC1CCN(Cc2cc(C(=O)O)cc(C(=O)NCCOCCO)c2)CC1 [Example 8.6] |
| 7.35 | NC(=NC(=O)c1nc(Cl)c(N)nc1N)NC1CCN(Cc2ccc(-c3cn(CCOCCOCCOCCNC(=O)c4cc(OCCOCCOCCO)cc(OCCOCCOCCO)c4)nn3)cc2)CC1 [Example 5.7] |
| 7.06 | NC(=NC(=O)c1nc(Cl)c(N)nc1N)N[C@@H]1CCCN(Cc2ccc(C(=O)O)cc2)C1 [Example 1.62] |
| 8.70 | NC(=NC(=O)c1nc(Cl)c(N)nc1N)NC1CCN(Cc2ccc(C(=O)NCCCn3ccnc3)cc2)CC1 [Example 1.23] |
| 7.62 | NC(=NC(=O)c1nc(Cl)c(N)nc1N)NC1CCN(Cc2cccc(CC(=O)O)c2)CC1 [Example 8.10] |
| 8.00 | NC(=NC(=O)c1nc(Cl)c(N)nc1N)NC1CCN(Cc2ccc(C(=O)OCCCCc3cn(CCOCCOCCOCCO)nn3)cc2)CC1 [Example 3.42] |
| 7.33 | CC(C)(C)OC(=O)c1ccc(CN2CCC[C@@H](NC(N)=NC(=O)c3nc(Cl)c(N)nc3N)C2)cc1 [Example 1.61] |
| 8.40 | CN(Cc1cn(-c2ccc(CN3CCC(NC(N)=NC(=O)c4nc(Cl)c(N)nc4N)CC3)cc2)nn1)C(=O)CCN [Example 4.2] |
| 8.40 | C#CCOc1ccc(CN2CCC(NC(N)=NC(=O)c3nc(Cl)c(N)nc3N)CC2)cc1 [Example 1.4] |
| 7.36 | NC(=NC(=O)c1nc(Cl)c(N)nc1N)NC1CCN(Cc2ccc(CC(=O)O)cc2)CC1 [Example 8.13] |

| Compound | pIC50 |
| --- | --- |
| CCOP(=O)(Cc1ccc(CN2CCC(NC(N)=NC(=O)c3nc(Cl)c(N)nc3N)CC2)cc1)OCC [Example 1.8] | 8.00 |
